Experimental findings from the supplement of paper PMC4862054 are described below.

Where only a bound is given, the exact number is not on record here.

Test [1] deals with HCC1143. The test is described as follows: normalised response (% of control), CellTiter-Glo; higher = more viable cells (100 = DMSO, 0 = benzethonium chloride kill control). Conditions: incubation time: 72 h. A digest of the protocol:
(§1)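 Plates were normalised with 0.1 % DMSO as 100 and a positive kill control as 0. Breast cancer cell lines in 20 µl suspension had been seeded into 384-well plates with compound at 5 concentrations in 10-fold steps over a compound-specific 10,000-fold range, incubated 72 h, and read for CellTox Green fluorescence (485/520 nm) followed by CellTiter-Glo luminescence. Each value is the normalised signal at a single concentration.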

Test [2] deals with CAL-148. The description is as above. The following applies: incubation time: 72 h. A digest of the protocol:
as §1

The subject of test [3] is MDA-MB-436. Described as above. The following applies: incubation time: 72 h. The procedure, abridged: as §1
Test [4] relates to HCC1937. The following applies: 72 h. A digest of the protocol: (§2)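 A 20 µl suspension of breast cancer cells was placed in 384-well plates that already contained compound at 5 concentrations in 10-fold steps across a compound-specific 10,000-fold range, and the plates were left for 72 h. CellTox Green fluorescence at 485/520 nm gave cell death, and CellTiter-Glo luminescence, read after 10 min at room temperature, gave viability. Each plate was normalised to 0.1 % DMSO and a positive kill control. EC50 was fitted from the curves and censored at the top concentration.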

For test [5], the system named is MCF-10A. Conditions: 72 h. A digest of the protocol:
as §2

Test [6] has as its system MDA-MB-436. The following applies: 72 h. The procedure, abridged:
as §2

For test [7], the system named is BT-549. The following applies: 72 h. A digest of the protocol: as §2
The test system of test [8] is CAL-148. Conditions: 72 h. The procedure, abridged:
as §2

In test [9] the test system is MFM-223. Conditions: 72 h. A digest of the protocol:
(§3)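 Rows with a drug sensitivity score of zero were dropped, and EC50 was taken from the fitted percent-inhibition dose-response curve, censored at the highest concentration. Data were normalised on each plate to vehicle and a positive kill control and checked by Z'-factor. The assay seeded breast cancer cell lines in 20 µl onto 384-well plates pre-loaded with compound in 5 µl medium for 72 h, then added 2.5 µl CellTiter-Blue for 2 h at 37 °C and read fluorescence at 560/590 nm.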

In test [10] the test system is MDA-MB-468. The following applies: 72 h. The procedure:
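Drug sensitivity and resistance testing (DSRT) of breast cancer cell lines in 384-well plates, 5 concentrations in 10-fold dilutions over a compound-specific 10,000-fold range. After 72 h, cytotoxicity was read by CellTox Green fluorescence and viability by CellTiter-Glo luminescence (multiplexed), normalised to DMSO and benzethonium chloride controls. EC50 is the inflection point of the fitted dose-response curve (bottom asymptote free, so it can be relative for partial curves) and is censored at the highest tested concentration. Rows with DSS 0 (no meaningful response) were excluded.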

For test [11], the system named is MDA-MB-453. Conditions: 72 h. A digest of the protocol: as §3
Test [12] deals with CAL-51. The following applies: 72 h. A digest of the protocol: as §3
The subject of test [13] is CAL-148. Conditions: 72 h. The procedure, abridged:
as §3
The source holds these as a separate data set.

Test [14] relates to SK-BR-3. The following applies: 72 h. The procedure, abridged: as §3
The subject of test [15] is BT-549. The following applies: 72 h. A digest of the protocol: as §3
The source holds these as a separate data set.

In test [16] the test system is MDA-MB-468. Conditions: 72 h. The procedure, abridged:
as §3
This is another data set of the same source.

Test [17] has as its system Hs578T. The following applies: 72 h. A digest of the protocol: as §3
For test [18], the system named is HCC1143. Conditions: 72 h. A digest of the protocol: as §3
For test [19], the system named is BT-474. The following applies: 72 h. The procedure, abridged:
as §3

For test [20], the system named is MDA-MB-436. Conditions: 72 h. A digest of the protocol:
as §3
This is another data set of the same source.

In test [21] the test system is MDA-MB-231. Conditions: 72 h. The procedure, abridged: as §2
The test system of test [22] is HDQ-P1. The following applies: 72 h. A digest of the protocol: as §3

As to `C[C@]12CC[C@@H]3c4ccc(O)cc4C[C@@H](CCCCCCCCC[S+]([O-])CCCC(F)(F)C(F)(F)F)[C@H]3[C@@H]1CC[C@@H]2O` (stereo partly drawn) [Fulvestrant] (1000 nM), the normalised response in test [1] came out at 106%; in [2] it was 104%; in test [3], 105%.

`O=P1(NCCCl)OCCCN1CCCl` (stereo not drawn) [Ifosfamide] (10000 nM): the normalised response came out at 96.8% in test [1], 86.7% in test [2] and 92.5% in [3].

Turning to `CC1(C)NC(=O)N(c2ccc([N+](=O)[O-])c(C(F)(F)F)c2)C1=O` [Nilutamide] (10000 nM), the normalised response came to 101% in test [1], 112% in test [2] and 114% in test [3].

`CCCCCCCCCCCCCCCCCCOP(=O)([O-])OC1CC[N+](C)(C)CC1` [Perifosine]: the “EC50, CellTiter-Glo” value in test [4] was 2080 nM; in test [5], greater than 2500 nM; in test [6] it was greater than 2500 nM.

On to `Cc1ccc(C(=O)Nc2ccc(CN3CCN(C)CC3)c(C(F)(F)F)c2)cc1C#Cc1cnc2cccnn12` [Ponatinib] (1000 nM), for which the normalised response was determined as 86% in [1], 85.4% in [2] and 64.7% in test [3].

Take `Cn1c(Nc2ccc(C(F)(F)F)cc2)nc2cc(Oc3ccnc(-c4ncc(C(F)(F)F)[nH]4)c3)ccc21` [RAF265] (1000 nM): the values for the normalised response in test [1], in [2] and in [3] were 94.2%, 99.9% and 67.7%, respectively.

For the molecule `CNCc1ccc(-c2[nH]c3cc(F)cc4c3c2CCNC4=O)cc1` [Rucaparib], the “EC50, CellTiter-Glo” value is greater than 10000 nM in [7] and 501 nM in test [8]. Further, the “EC50, CellTiter-Blue viability” value in test [9] came to 5060 nM; in test [11] it was 6180 nM; in test [12], 8870 nM; in test [13], 7670 nM. In test [10], the “EC50, CellTox Green” value was found to be 2.01 nM.

`CNCc1ccc(-c2[nH]c3cc(F)cc4c3c2CCNC4=O)cc1` [Rucaparib] (10000 nM): the results for the normalised response in test [1], in test [2] and in test [3] were 94.5%, 71.2% and 85.7%, respectively.

With `N[C@@H](CSC(c1ccccc1)(c1ccccc1)c1ccccc1)C(=O)O` [S-trityl-L-cysteine], the “EC50, CellTiter-Blue viability” value was 1130 nM in [14]; 18300 nM in [15]; 1410 nM in test [16]; 1910 nM in test [17]; greater than 40000 nM in test [18]; 10800 nM in test [19]. For the same molecule, in [20], the “EC50, CellTiter-Blue viability” value turned out to be 4580 nM.

For the molecule `N[C@@H](CSC(c1ccccc1)(c1ccccc1)c1ccccc1)C(=O)O` [S-trityl-L-cysteine] (40000 nM), the normalised response was determined as 92.8% in [1], 100% in test [2] and 95.3% in test [3].

Regarding `O=C1CCC(N2C(=O)c3ccccc3C2=O)C(=O)N1` (stereo not drawn) [Thalidomide] (10000 nM), the normalised response in [1] was found to be 94.7%; in [2] it was 92.4%; in [3], 96%.

In the case of `CN[C@@H]1C[C@H]2O[C@@](C)([C@@H]1OC)n1c3ccccc3c3c4c(c5c6ccccc6n2c5c31)C(=O)N[C@H]4O` [UCN-01] (10000 nM), the normalised response is 8.19% in test [1], 9.37% in test [2] and 7.46% in test [3].

Turning to `Clc1ccc(Nc2nnc(Cc3ccncc3)c3ccccc23)cc1` [Vatalanib] (10000 nM), the normalised response in [1] turned out to be 98.3%; in [2], 105%; in [3], 109%.

On to `Oc1nc(-c2ccc(C(F)(F)F)cc2)nc2c1CSCC2` [XAV-939], for which the “EC50, CellTiter-Glo” value in test [21] is 172 nM. For the same molecule, the “EC50, CellTiter-Blue viability” value in test [18] was greater than 10000 nM; in [22], 2090 nM.

For `Oc1nc(-c2ccc(C(F)(F)F)cc2)nc2c1CSCC2` [XAV-939] (10000 nM), the results for the normalised response in test [1], in test [2] and in [3] were 91.4%, 94.4% and 91.8%, respectively.
